Measured values: ChEMBL document CHEMBL1151958, “Improving metabolic stability by glycosylation: bifunctional peptide derivatives that are opioid receptor agonists and neurokinin 1 receptor antagonists” (J Med Chem, 2009)

Experiments:
Mu-type opioid receptor = Mu-type opioid receptor (Rattus norvegicus, UniProt P33535); assay: Displacement of [3H]DAMGO from rat mu opioid receptor expressed in mouse HN9.10 cell membrane; assay type: cell membranes
Substance-P receptor [1] = target: Substance-P receptor (Rattus norvegicus, UniProt P14600); assay: Displacement of [3H]substance P from rat NK1 receptor expressed in CHO cell membrane; assay type: cell membranes
Chain of Substance-P receptor (Rattus norvegicus, UniProt P14600) (P14600 whole entry): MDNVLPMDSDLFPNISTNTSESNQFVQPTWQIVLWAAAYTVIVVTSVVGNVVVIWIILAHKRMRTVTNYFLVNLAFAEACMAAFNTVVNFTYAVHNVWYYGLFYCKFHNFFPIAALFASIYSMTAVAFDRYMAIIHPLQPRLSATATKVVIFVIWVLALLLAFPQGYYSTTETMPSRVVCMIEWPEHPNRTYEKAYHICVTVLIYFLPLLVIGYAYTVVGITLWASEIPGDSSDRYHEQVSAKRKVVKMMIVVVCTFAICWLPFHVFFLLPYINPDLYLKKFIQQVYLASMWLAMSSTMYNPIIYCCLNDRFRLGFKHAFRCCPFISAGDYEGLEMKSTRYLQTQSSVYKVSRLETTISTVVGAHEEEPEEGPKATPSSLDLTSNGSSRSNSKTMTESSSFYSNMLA

[2] = target: Delta-type opioid receptor (Homo sapiens, UniProt P41143); assay: Displacement of [3H]DPDPE from human delta opioid receptor expressed in mouse HN9.10 cell membrane; assay type: cell membranes
Chain of Delta-type opioid receptor (P41143 whole entry): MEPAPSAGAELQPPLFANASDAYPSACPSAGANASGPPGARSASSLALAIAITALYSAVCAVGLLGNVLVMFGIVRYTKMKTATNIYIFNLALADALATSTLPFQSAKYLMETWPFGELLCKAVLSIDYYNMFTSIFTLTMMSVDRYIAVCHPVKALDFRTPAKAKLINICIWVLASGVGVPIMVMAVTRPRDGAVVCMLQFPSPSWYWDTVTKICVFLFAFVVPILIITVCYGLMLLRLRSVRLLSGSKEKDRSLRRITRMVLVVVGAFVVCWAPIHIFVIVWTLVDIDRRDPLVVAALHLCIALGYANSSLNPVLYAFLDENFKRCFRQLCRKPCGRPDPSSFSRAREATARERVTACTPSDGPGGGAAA

[3] = Metabolic stability in rat plasma assessed as half life at 37 degC; assay type: ADME, cell-free
Substance-P receptor [4] = target: Substance-P receptor (Homo sapiens, UniProt P25103); assay: Displacement of [3H]substance P from human NK1 receptor expressed in CHO cell membrane; assay type: cell membranes
Chain of Substance-P receptor (Homo sapiens, UniProt P25103) (P25103 whole entry): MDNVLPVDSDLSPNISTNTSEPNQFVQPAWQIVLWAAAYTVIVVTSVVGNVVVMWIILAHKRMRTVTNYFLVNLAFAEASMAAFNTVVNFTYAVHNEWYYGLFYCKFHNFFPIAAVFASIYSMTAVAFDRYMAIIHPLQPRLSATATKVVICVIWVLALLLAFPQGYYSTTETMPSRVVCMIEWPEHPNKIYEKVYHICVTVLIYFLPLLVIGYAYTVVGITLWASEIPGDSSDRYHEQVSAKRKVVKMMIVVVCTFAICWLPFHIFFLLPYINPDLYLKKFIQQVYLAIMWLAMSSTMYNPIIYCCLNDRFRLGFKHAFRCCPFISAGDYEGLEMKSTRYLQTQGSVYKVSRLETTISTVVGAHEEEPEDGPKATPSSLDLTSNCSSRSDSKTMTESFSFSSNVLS

Chain of Mu-type opioid receptor (P33535 whole entry): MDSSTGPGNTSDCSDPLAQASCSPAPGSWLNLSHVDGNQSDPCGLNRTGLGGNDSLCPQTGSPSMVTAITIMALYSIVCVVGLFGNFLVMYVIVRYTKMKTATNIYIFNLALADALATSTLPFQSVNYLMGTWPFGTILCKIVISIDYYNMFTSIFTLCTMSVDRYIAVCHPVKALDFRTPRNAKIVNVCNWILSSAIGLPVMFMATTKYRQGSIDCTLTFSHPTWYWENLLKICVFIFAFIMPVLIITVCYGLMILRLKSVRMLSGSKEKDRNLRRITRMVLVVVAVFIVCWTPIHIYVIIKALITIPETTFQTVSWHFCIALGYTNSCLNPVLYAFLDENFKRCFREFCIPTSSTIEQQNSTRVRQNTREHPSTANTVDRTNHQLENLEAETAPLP

| SMILES | IC50 (Mu-type opioid receptor) [nM] | IC50 (Substance-P receptor [1]) [nM] | IC50 [2] [nM] | half-life [3] [h] | IC50 (Substance-P receptor [4]) [nM] |
| --- | --- | --- | --- | --- | --- |
| CCCC[C@H](NC(=O)[C@H](Cc1ccccc1)NC(=O)CNC(=O)[C@@H](C)NC(=O)[C@@H](N)Cc1ccc(O)cc1)C(=O)N1CCC[C@H]1C(=O)N[C@@H](CO[C@@H]1O[C@H](CO)[C@@H](O)[C@H](O)[C@H]1O)C(=O)N[C@@H](Cc1c[nH]c2ccccc12)C(=O)NCc1cc(C(F)(F)F)cc(C(F)(F)F)c1 | 17 | 50.1 | 7.94 | > 6 |  |
| CCCC[C@H](NC(=O)[C@H](Cc1ccccc1)NC(=O)CNC(=O)[C@@H](C)NC(=O)[C@@H](N)Cc1ccc(O)cc1)C(=O)N[C@@H](CO[C@@H]1O[C@H](CO)[C@@H](O)[C@H](O)[C@H]1O)C(=O)N[C@@H](CC(C)C)C(=O)N[C@@H](Cc1c[nH]c2ccccc12)C(=O)NCc1cc(C(F)(F)F)cc(C(F)(F)F)c1 | 7080 |  |  |  | 4.17 |
| CC(C)C[C@H](NC(=O)[C@@H]1CCCN1C(=O)[C@H](CO[C@@H]1O[C@H](CO)[C@@H](O)[C@H](O)[C@H]1O)NC(=O)[C@H](Cc1ccccc1)NC(=O)CNC(=O)[C@@H](C)NC(=O)[C@@H](N)Cc1ccc(O)cc1)C(=O)N[C@@H](Cc1c[nH]c2ccccc12)C(=O)NCc1cc(C(F)(F)F)cc(C(F)(F)F)c1 | 759 | 4.47 | 123 |  | 0.000617 |
| CCCC[C@H](NC(=O)[C@H](Cc1ccccc1)NC(=O)CNC(=O)[C@@H](C)NC(=O)[C@@H](N)Cc1ccc(O)cc1)C(=O)N1CCC[C@H]1C(=O)N[C@@H](CC(C)C)C(=O)N[C@@H](Cc1c[nH]c2ccccc12)C(=O)NCc1cc(C(F)(F)F)cc(C(F)(F)F)c1 |  |  | 2.14 | > 6 | 0.00269 |
